Reference: paper PMC10604323, “Cannabidiol Modulates M-Type K^+ and Hyperpolarization-Activated Cation Currents” (Biomedicines, 2023)

Assays:
[1] = system: T1, hyperpolarization-activated cation current (Ih) of GH3 cells; HCN2, HCN3, and a combination of HCN2 and HCN3; experiment: whole-cell patch clamp; type: cell-based; details: Ca2+-free Tyrode's solution with 0.5 mM CdCl2 and 1 μM TTX, 2 s step from -40 to -110 mV, pH 7.4, 20-25 °C, native current
T1 construct: native channels in GH3 cells; subunit composition not determined

[2] = system: T2, M-type K+ current (IK(M)) of GH3 cells; KV7.2, KV7.3 and KV7.5 channels; experiment: whole-cell patch clamp; type: cell-based; details: high-K+ Ca2+-free solution with 1 μM TTX, 1 s step from -50 to -10 mV, pH 7.4, 20-25 °C, native current
T2 construct: gene Kcnq2; native channels in GH3 cells; subunit composition not determined
Source text: whole-cell patch clamp on M-type K+ current (IK(M)) of GH3 cells; KV7.2, KV7.3 and KV7.5 channels | concentration–response curve for the CBD-induced inhibition of the density of IK(M)

In the case of `C=C(C)[C@@H]1CCC(C)=C[C@H]1c1c(O)cc(CCCCC)cc1O` [Cannabidiol, 2-[(1R,6R)-3-methyl-6-(prop-1-en-2-yl)cyclohex-2-en-1-yl]-5-pentylbenzene-1,3-diol], the IC50 [1] is reported as 3.3 µM and the IC50 [2] is reported as 3.6 µM.
